# Experimental data: patent publication US20070232796A1, “Medical Solution, a Method for Producing Said Medical Solution and Use Thereof” (priority 2004, published 2007)
# “Also recorded” adds a separate entry of the source.
# System: Cell Growth
# Experiment: Inhibition of Cell Growth (ICG) as marker for cytotoxicity / biological reactivity
# Format: cell-based
# Excerpt: FIG. 1 is a diagram showing the relation ship between Inhibition of Cell Growth (ICG) and concentration of 3,4-DGE in a solution.
# In order to investigate and come up with the present invention, the present inventors studied the relationship between the different GDPs and came to the conclusion that the GDPs interact according to the reaction formula given above.
smiles,measurement,setting,value
"O=CC(=O)C=CC(O)CO (centres unmarked) [3,4-DGE, 3,4-dideoxyglucosone-3-ene]","relationship between concentration of 3,4-DGE and Inhibition of Cell Growth (ICG)","FIG. 1, ICG used as measure/marker for biological reactivity","good dose relation between 3,4-DGE and cytotoxicity; also recorded: dose dependent relationship"
same,toxicity compared with the other known GDPs,"known GDPs: acetaldehyde, formaldehyde, glyoxal, methylglyoxal, 3-DG, 5-HMF",mast toxic of the known GDPs
